Key:
HeLa cells [1] = experiment: In vitro Fluc expression with variable peptoid:mRNA mass ratio, 2% DMG-PEG2000; type: cell-based; settings: 24 h; for Observed Luciferase Expression (RLU) for Given Formulation Mass Ratio 2:1: 2% (w/w) DMG-PEG2000, peptoid:mRNA 2:1; for Observed Luciferase Expression (RLU) for Given Formulation Mass Ratio 3.5:1: 2% (w/w) DMG-PEG2000, peptoid:mRNA 3.5:1; for Observed Luciferase Expression (RLU) for Given Formulation Mass Ratio 5:1: 2% (w/w) DMG-PEG2000, peptoid:mRNA 5:1; for Observed Luciferase Expression (RLU) for Given Formulation Mass Ratio 7.5:1: 2% (w/w) DMG-PEG2000, peptoid:mRNA 7.5:1
Method: The charge ratio dependence of amino lipidated peptoid delivery vehicles was evaluated by formulating particles between Fluc mRNA and delivery vehicles at varying mass ratios. Formulations were varied between 2:1 and 7.5:1 peptoid:mRNA (w/w) ratios (2:1, 3.5:1, 5:1 and 7.5:1). In addition, the role of DMG-PEG2000 was also explored with the mass ratios, either by excluding DMG-PEG2000 or incorporating DMG-PEG2000 at 2% (w/w) relative to amino lipidated peptoid. Fluc expression from these formulations was measured in HeLa cells following treatment for 24 hours. […] FIGS. 6B and 6C show plots of the average bioluminescence (RLU) for HeLa cells treated with the formulations of exemplary amino lipidated cationic peptoid compounds 1-36, all formulated with 2% w/w DMG-PEG2000.

[2] = MTT viability assay after treatment with Fluc mRNA/amino lipidated peptoid formulations; type: cell-based; settings: human, HeLa cells
Method: Cellular viability was measured following treatment with Fluc mRNA/amino lipidated peptoid formulations by a traditional MTT viability assay. […] In this assay, cells were first treated with peptoid formulations at a final mRNA concentration of 100 ng/well for 8 hours. Cells were then left to grow for 48 hours, after which time they were exposed to 1.5 mg/mL 3-(4,5-dimethylthiazol-2-yl)-2,5-diphenyltetrazolium bromide (MTT) for 2 hours, then lysed using a solubilizing solution of 10% Triton-X 100 in acidic isopropanol (0.1N HCl). The signal corresponding to reduced formazan was normalized to untreated cells to provide a relative viability of each treated condition. […] In general, nearly all conditions maintained at least 80% viability with the only exceptions being formulations of compound 5, 34, and 35.

[3] = mRNA encapsulation by fluorescence of Qubit RNA HS dye before and after lysis with Triton X-100; type: physicochemical; settings: percentage of mRNA encapsulation; Fluc mRNA/peptoid formulation, 5:1 mass ratio
Method: (§1) The exemplary amino lipidated cationic peptoids described in Example 2 were combined with firefly luciferase (Fluc) mRNA to form nanoparticle compositions to be evaluated for therapeutic and/or prophylactic purposes in vitro or in vivo. The formulations were prepared according to the protocol of Example 3 and mixed by simple pipetting. The mRNA/peptoid formulation at a 5:1 mass ratio of peptoid:cargo were evaluated by dynamic light scattering (DLS) in order to determine the volume average particle size/diameter (nm) of the mRNA/peptoid complex and the size polydispersity index (PDI) within the formulation. The percentage of mRNA encapsulation for each formulation of the exemplary compounds were determined by fluorescence of the Qubit RNA HS (Invitrogen) dye before and after lysis of particles by Triton X-100.

HeLa cells [4] = experiment: In vitro expression of firefly luciferase (Fluc) after treatment with Fluc mRNA/amino lipidated peptoid formulations, no PEG or 2% DMG-PEG2000; type: cell-based
Method: The efficacy of mRNA/amino lipidated peptoid formulations was evaluated in vitro based on their ability to deliver the firefly luciferase (Fluc) reporter gene to cultured cells. Amino lipidated peptoids were combined with Fluc mRNA at a 5:1 w/w ratio, and the resulting particles were added to cultured HeLa cells at a dose of 100 ng/well (in 100 μL total volume). The resulting luciferase expression (RLU) was measured by a luminescence plate reader after 6 hours and 24 hours of treatment. […] In addition to evaluating nanoparticle complexes formed between mRNA cargos and amino lipidated peptoids alone, multicomponent formulations containing a small amount of PEG-lipid DMG-PEG2000 were also tested for in vitro Fluc mRNA delivery. In these formulations, DMG-PEG2000 was pre-mixed with candidate peptoid at an overall 2% incorporation (w/w), while maintaining the same 5:1 mass ratio of peptoid:mRNA used previously.

[5] = Dynamic light scattering (DLS) of mRNA/peptoid formulations: particle size and polydispersity; type: physicochemical; settings: Fluc mRNA/peptoid formulation; for Size PDI: size polydispersity index by DLS, 5:1 mass ratio; for Size (nm): volume average particle size/diameter by DLS, 5:1 mass ratio peptoid:cargo
Method: as §1, with “To prepare nanoparticle formulations, the amino lipidated peptoid is mixed by pipetting with nucleic acid at a mass ratio between approximately 1:1 (peptoid:cargo) and 20:1. Prior to formulation, amino lipidated peptoid and nucleic acid cargo were diluted in ethanol and acidic buffer (PBS adjusted to pH 5.5 with 0.1 M HCl) respectively to a volume ratio of 1:3 and to target a final cargo concentration of approximately 0.05 mg/mL to 0.2 mg/mL. The exemplary” for “The exemplary”

[6] = no PEG, peptoid:Fluc mRNA 5:1 w/w, 100 ng/well, 6 h of treatment
[7] = no PEG, peptoid:Fluc mRNA 5:1 w/w, 100 ng/well, 24 h of treatment
[8] = with 2% (w/w) DMG-PEG2000, peptoid:mRNA 5:1, 6 h after treatment
[9] = with 2% (w/w) DMG-PEG2000, peptoid:mRNA 5:1, 24 h after treatment

SMILES | % Encapsulation [3] | Size PDI [5] | Size (nm) [5] | Observed Luciferase Expression (RLU) for Given Formulation Mass Ratio 2:1 (HeLa cells [1]) | Observed Luciferase Expression (RLU) for Given Formulation Mass Ratio 3.5:1 (HeLa cells [1]) | Observed Luciferase Expression (RLU) for Given Formulation Mass Ratio 5:1 (HeLa cells [1]) | Observed Luciferase Expression (RLU) for Given Formulation Mass Ratio 7.5:1 (HeLa cells [1]) | viability at 8 h, 500 ng/well ([2]; Relative Viability (%) 2% PEG) | viability at 8 h, 500 ng/well ([2]; Relative Viability (%) No PEG) | Luciferase Expression (RLU) 6 h (HeLa cells [4]; [6]) | Luciferase Expression (RLU) 24 h (HeLa cells [4]; [7]) | Luciferase Expression (RLU) 6 h (HeLa cells [4]; [8]) | Luciferase Expression (RLU) 24 h (HeLa cells [4]; [9])
CCCCCCCCN(CC(N)=O)C(=O)CN(CCCCCCCC)C(=O)CN(CCc1ccccc1)C(=O)CN(CCc1ccccc1)C(=O)CN(CCN)C(=O)CN(CCc1ccccc1)C(=O)CN(CCc1ccccc1)C(=O)CN(CCN)C(=O)CN(CCc1ccccc1)C(=O)CN(CCc1ccccc1)C(=O)CNCCN [Compound 1] | 90.1% | 0.047 | 356.9 nm | 6.82E+02 RLU | 3.12E+02 RLU | 2.31E+02 RLU | 3.35E+01 RLU | 88.1% | 97.4% | 1.22E+02 RLU | 4.00E+01 RLU | 2.09E+02 RLU | 8.67E+00 RLU
CCCCCCCCCCN(CC(N)=O)C(=O)CN(CCCCCCCCCC)C(=O)CN(CCCCCCCCCC)C(=O)CN(CCCCCCCCCC)C(=O)CN(CCc1ccccc1)C(=O)CN(CCc1ccccc1)C(=O)CN(CCNC)C(=O)CN(CCc1ccccc1)C(=O)CN(CCc1ccccc1)C(=O)CN(CCNC)C(=O)CN(CCc1ccccc1)C(=O)CN(CCc1ccccc1)C(=O)CNCCNC [Compound 25] | 8.4% | 0.021 | 773.3 nm | 3.86E+02 RLU | 8.41E+03 RLU | 5.03E+03 RLU | 5.66E+03 RLU | 85.9% | 77.9% | 3.93E+02 RLU | 2.07E+03 RLU | 1.81E+03 RLU | 7.30E+02 RLU
CCCCCCCCCCN(CC(N)=O)C(=O)CN(CCCCCCCCCC)C(=O)CN(CCN)C(=O)CN(CCN)C(=O)CN(CCN)C(=O)CN(CCN)C(=O)CN(CCN)C(=O)CN(CCN)C(=O)CN(CCN)C(=O)CN(CCN)C(=O)CNCCN [Compound 16] | 85.4% | 1 | 1486 nm | 1.01E+02 RLU | 4.16E+01 RLU | 2.55E+01 RLU | 1.47E+01 RLU | 90.8% | 89.4% | 7.33E+00 RLU | 1.67E+01 RLU | 2.63E+01 RLU | 5.00E+00 RLU

More lines, main results first:

% Encapsulation [3] | Size PDI [5] | Size (nm) [5] | SMILES | Observed Luciferase Expression (RLU) for Given Formulation Mass Ratio 2:1 (HeLa cells [1]) | Observed Luciferase Expression (RLU) for Given Formulation Mass Ratio 3.5:1 (HeLa cells [1]) | Observed Luciferase Expression (RLU) for Given Formulation Mass Ratio 5:1 (HeLa cells [1]) | Observed Luciferase Expression (RLU) for Given Formulation Mass Ratio 7.5:1 (HeLa cells [1]) | viability at 8 h, 500 ng/well ([2]; Relative Viability (%) 2% PEG) | viability at 8 h, 500 ng/well ([2]; Relative Viability (%) No PEG) | Luciferase Expression (RLU) 6 h (HeLa cells [4]; [6]) | Luciferase Expression (RLU) 24 h (HeLa cells [4]; [7]) | Luciferase Expression (RLU) 6 h (HeLa cells [4]; [8]) | Luciferase Expression (RLU) 24 h (HeLa cells [4]; [9])
50.9% | 0.274 | 247.5 nm | CCCCCCCCCCN(CC(N)=O)C(=O)CN(CCCCCCCCCC)C(=O)CN(CCCCCCCCCC)C(=O)CN(CCCCCCCCCC)C(=O)CN(CCc1ccccc1)C(=O)CN(CCc1ccccc1)C(=O)CN(CC1CCNCC1)C(=O)CN(CCc1ccccc1)C(=O)CN(CCc1ccccc1)C(=O)CN(CC1CCNCC1)C(=O)CN(CCc1ccccc1)C(=O)CN(CCc1ccccc1)C(=O)CN(CC1CCNCC1)C(=O)CN(CCc1ccccc1)C(=O)CN(CCc1ccccc1)C(=O)CNCC1CCNCC1 [Compound 32] | 1.82E+02 RLU | 3.09E+02 RLU | 3.77E+03 RLU | 3.37E+03 RLU | 102% | 90.7% | 4.25E+02 RLU | 2.00E+03 RLU | 4.82E+02 RLU | 3.40E+02 RLU
95.9% | 0.247 | 255.3 nm | CCCCCCCCCCCCN(CC(N)=O)C(=O)CN(CCCCCCCCCCCC)C(=O)CN(CCc1ccccc1)C(=O)CN(CCc1ccccc1)C(=O)CN(CCN)C(=O)CN(CCc1ccccc1)C(=O)CN(CCc1ccccc1)C(=O)CN(CCN)C(=O)CN(CCc1ccccc1)C(=O)CN(CCc1ccccc1)C(=O)CNCCN [Compound 3] | 4.42E+03 RLU | 2.56E+03 RLU | 4.53E+03 RLU | 2.69E+03 RLU | 95.3% | 91.2% | 2.27E+02 RLU | 2.99E+02 RLU | 3.14E+02 RLU | 4.68E+02 RLU
88.5% | 0.762 | 593 nm | CCCCCCCCCCNCC(=O)N(CCN)CC(=O)N(CCc1ccccc1)CC(=O)N(CCc1ccccc1)CC(=O)N(CCN)CC(=O)N(CCc1ccccc1)CC(=O)N(CCc1ccccc1)CC(=O)N(CCN)CC(=O)N(CCc1ccccc1)CC(=O)N(CCc1ccccc1)CC(=O)N(CCCCCCCCCC)CC(N)=O [Compound 18] | 1.53E+03 RLU | 3.00E+03 RLU | 9.99E+02 RLU | 2.41E+01 RLU | 89.3% | 86.1% | 5.74E+02 RLU | 8.49E+02 RLU | 8.50E+01 RLU | 1.22E+02 RLU

From patent US20220323594A1, “LIPIDATED CATIONIC PEPTIDE-PEG COMPOSITIONS FOR NUCLEIC ACID DELIVERY” (NUTCRACKER THERAPEUTICS, INC., priority 2019, published 2022)
